Assay [1] deals with Tyrosine-protein kinase ABL1 (Homo sapiens), P00519 [T315I]. Put plainly: Selectivity interaction (Ambit KINOMEscan and KiNATiv profiling in Jurkat cells) EUB0000090b ABL1. It is filed as cell-based. As to conditions: at 1 µM.
Assay [2] addresses Interferon-induced, double-stranded RNA-activated protein kinase (Homo sapiens) (UniProt P19525). The experiment in a line: Selectivity interaction (Ambit KINOMEscan and KiNATiv profiling in Jurkat cells) EUB0000090b EIF2AK2. Type of assay: cell-based. The conditions noted are these: at 1 µM.
In assay [3] the target is Sodium-dependent noradrenaline transporter (Homo sapiens, UniProt P23975). The experiment in a line: Selectivity interaction (Panel of non-epigenetic targets (kinases, GPCRs, ion channels, and transporters, Eurofins) ) EUB0000271b SLC6A2. The conditions noted are these: at 1 µM.
Chain of Sodium-dependent noradrenaline transporter (P23975 whole entry): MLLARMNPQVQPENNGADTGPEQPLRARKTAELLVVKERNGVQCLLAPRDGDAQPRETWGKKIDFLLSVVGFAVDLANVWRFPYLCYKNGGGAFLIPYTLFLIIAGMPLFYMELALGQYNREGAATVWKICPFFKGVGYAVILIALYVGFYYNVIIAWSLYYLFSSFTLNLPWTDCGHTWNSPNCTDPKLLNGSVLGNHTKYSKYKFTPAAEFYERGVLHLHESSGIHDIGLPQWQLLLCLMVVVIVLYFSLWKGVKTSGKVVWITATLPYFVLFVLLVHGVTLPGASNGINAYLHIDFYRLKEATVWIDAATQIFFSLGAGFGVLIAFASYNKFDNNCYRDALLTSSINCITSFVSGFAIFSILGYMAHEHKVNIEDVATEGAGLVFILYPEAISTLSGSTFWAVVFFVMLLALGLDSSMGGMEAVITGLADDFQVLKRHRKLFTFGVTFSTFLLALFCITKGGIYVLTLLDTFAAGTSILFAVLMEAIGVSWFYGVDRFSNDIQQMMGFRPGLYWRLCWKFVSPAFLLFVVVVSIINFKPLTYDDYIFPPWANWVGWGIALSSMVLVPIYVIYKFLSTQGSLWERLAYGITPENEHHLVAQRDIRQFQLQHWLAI
For assay [4], the target named is T1, Calcium/calmodulin-dependent protein kinase type IV (Homo sapiens) (UniProt Q16566).
T1 sequence (whole entry): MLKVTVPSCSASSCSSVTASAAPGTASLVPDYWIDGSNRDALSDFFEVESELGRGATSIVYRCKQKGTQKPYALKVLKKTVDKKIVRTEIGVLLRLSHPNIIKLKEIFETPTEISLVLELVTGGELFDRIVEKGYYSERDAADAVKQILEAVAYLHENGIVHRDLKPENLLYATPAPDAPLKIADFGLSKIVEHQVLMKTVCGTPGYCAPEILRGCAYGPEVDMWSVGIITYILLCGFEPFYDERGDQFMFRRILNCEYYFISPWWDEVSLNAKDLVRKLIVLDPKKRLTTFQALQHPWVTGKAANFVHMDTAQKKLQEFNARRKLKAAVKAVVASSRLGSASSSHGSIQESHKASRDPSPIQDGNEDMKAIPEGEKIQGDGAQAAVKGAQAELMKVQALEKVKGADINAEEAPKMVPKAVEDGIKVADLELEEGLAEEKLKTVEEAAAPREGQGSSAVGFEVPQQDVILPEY
The experiment in a line: Selectivity interaction (KinomeScan (DiscoverX)) EUB0000607a CAMK4. As to conditions: at 10 µM.

The target in assay [5] is Serine/threonine-protein kinase Nek4 (Homo sapiens) (UniProt P51957). The experiment in a line: Selectivity interaction (KinomeScan (DiscoverX)) EUB0000666a NEK4. The conditions noted are these: at 10 µM.
Chain of Serine/threonine-protein kinase Nek4 (Homo sapiens) (P51957 whole entry, looked up): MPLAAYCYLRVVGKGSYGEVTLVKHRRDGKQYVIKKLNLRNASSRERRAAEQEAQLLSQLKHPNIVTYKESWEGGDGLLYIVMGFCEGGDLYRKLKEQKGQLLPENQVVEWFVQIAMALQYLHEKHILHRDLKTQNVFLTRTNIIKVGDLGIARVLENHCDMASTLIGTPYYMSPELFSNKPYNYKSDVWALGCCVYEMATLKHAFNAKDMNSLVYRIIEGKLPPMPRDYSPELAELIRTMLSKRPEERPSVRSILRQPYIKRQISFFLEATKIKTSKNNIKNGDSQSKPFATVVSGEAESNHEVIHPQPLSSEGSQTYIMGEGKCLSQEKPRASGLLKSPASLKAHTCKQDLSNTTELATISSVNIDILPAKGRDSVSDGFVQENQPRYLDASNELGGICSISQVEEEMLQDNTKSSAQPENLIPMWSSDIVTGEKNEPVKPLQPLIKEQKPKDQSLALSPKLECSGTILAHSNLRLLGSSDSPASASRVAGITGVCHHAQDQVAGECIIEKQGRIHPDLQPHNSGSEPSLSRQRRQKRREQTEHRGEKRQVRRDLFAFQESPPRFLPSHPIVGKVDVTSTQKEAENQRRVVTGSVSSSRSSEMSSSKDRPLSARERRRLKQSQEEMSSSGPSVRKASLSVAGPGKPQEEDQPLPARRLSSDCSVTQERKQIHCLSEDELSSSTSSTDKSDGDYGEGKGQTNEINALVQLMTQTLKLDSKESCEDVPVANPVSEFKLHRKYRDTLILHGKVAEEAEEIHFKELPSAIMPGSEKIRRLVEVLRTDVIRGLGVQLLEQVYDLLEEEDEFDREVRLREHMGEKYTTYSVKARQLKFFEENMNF
The target in assay [6] is Serine/threonine-protein kinase 25 (Homo sapiens) (UniProt O00506). The experiment in a line: Selectivity interaction (KinomeScan (DiscoverX)) EUB0000666a STK25. As to conditions: at 10 µM.
Chain of Serine/threonine-protein kinase 25 (Homo sapiens) (O00506 whole entry, looked up): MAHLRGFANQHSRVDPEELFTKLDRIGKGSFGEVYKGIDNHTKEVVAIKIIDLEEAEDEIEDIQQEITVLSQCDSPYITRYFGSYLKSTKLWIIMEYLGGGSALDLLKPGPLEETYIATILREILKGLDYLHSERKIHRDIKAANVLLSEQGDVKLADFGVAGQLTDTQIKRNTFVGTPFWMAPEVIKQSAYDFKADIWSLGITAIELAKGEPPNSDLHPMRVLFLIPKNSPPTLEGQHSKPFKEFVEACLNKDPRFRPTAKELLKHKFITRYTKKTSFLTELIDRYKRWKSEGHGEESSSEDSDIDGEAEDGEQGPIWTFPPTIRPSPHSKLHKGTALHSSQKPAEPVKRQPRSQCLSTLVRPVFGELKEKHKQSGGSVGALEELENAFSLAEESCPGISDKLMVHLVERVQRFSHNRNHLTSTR
The target in assay [7] is T2, Mitogen-activated protein kinase 15 (Homo sapiens) (UniProt Q8TD08).
T2 sequence (whole entry): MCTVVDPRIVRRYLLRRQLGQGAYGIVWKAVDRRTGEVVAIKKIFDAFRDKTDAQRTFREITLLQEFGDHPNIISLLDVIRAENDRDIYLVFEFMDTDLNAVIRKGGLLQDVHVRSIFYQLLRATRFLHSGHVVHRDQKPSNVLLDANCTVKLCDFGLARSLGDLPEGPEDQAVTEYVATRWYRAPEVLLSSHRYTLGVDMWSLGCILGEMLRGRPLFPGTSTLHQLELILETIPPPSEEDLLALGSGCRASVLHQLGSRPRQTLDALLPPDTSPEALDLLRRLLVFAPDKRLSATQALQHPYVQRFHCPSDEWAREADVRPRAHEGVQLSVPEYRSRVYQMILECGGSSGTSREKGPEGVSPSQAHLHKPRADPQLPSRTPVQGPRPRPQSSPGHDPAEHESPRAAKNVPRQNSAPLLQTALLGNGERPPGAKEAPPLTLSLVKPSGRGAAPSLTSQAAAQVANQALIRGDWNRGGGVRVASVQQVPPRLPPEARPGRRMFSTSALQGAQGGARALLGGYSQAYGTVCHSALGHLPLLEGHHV
Put plainly: Selectivity interaction (KinomeScan (DiscoverX)) EUB0000229b MAPK15. The conditions noted are these: at 10 µM.

The target of assay [8] is Death-associated protein kinase 2 (Homo sapiens) (UniProt Q9UIK4). The experiment in a line: Selectivity interaction (KinomeScan (DiscoverX)) EUB0000229b DAPK2. As to conditions: at 10 µM.
Chain of Death-associated protein kinase 2 (Homo sapiens) (Q9UIK4 whole entry, looked up): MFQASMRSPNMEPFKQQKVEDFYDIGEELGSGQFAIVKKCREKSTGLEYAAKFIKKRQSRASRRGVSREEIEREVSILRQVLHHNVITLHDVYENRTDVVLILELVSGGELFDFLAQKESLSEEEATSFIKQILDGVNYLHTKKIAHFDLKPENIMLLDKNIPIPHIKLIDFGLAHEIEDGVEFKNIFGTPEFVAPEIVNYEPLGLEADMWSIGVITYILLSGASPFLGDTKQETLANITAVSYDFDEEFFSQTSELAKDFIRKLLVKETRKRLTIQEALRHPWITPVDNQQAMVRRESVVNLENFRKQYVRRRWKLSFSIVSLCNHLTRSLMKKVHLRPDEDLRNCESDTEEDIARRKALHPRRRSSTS
The target in assay [9] is T3, STE20-related kinase adapter protein alpha (Homo sapiens) (UniProt Q7RTN6).
T3 sequence (whole entry): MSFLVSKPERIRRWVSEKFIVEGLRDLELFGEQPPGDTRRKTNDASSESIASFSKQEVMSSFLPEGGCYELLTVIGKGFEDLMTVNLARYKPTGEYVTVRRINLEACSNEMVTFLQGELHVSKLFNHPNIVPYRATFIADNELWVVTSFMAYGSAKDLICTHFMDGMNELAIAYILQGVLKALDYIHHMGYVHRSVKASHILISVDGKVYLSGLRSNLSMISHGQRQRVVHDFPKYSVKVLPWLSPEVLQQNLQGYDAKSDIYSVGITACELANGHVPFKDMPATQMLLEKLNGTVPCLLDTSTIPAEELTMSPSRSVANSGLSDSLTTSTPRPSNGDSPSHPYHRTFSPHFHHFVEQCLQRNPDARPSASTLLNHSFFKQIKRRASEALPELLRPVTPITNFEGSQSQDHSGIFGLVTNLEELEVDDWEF
The experiment in a line: Selectivity interaction (ActivX KiNativ screen (kinase selectivity in THP-1 cell lysates)) EUB0000639a STRADA. The conditions noted are these: lysate, at 0.01 µM. It is filed as subcellular.

Assay [10] has as its target T4, MAP kinase-activated protein kinase 5 (Homo sapiens) (UniProt Q8IW41).
T4 sequence (whole entry): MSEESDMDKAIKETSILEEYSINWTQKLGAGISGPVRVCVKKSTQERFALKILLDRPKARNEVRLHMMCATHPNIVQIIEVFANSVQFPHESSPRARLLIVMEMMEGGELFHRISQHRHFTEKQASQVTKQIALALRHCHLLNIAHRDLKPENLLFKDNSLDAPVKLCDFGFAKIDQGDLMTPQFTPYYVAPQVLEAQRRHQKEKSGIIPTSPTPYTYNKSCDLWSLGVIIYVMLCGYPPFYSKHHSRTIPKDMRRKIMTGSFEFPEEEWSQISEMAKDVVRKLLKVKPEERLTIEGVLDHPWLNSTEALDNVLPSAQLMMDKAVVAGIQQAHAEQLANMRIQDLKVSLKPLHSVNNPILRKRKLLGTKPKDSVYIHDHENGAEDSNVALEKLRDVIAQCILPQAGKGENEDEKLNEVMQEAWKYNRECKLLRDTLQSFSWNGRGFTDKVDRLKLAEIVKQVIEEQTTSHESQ
The experiment in a line: Selectivity interaction (KinomeScan (DiscoverX)) EUB0000092b MAPKAPK5. The conditions noted are these: at 10 µM.

The target in assay [11] is Myosin-IIIa (Homo sapiens) (UniProt Q8NEV4). Put plainly: Selectivity interaction (KinomeScan (DiscoverX)) EUB0000595a MYO3A. The conditions noted are these: at 10 µM.
Chain of Myosin-IIIa (Homo sapiens) (Q8NEV4 whole entry): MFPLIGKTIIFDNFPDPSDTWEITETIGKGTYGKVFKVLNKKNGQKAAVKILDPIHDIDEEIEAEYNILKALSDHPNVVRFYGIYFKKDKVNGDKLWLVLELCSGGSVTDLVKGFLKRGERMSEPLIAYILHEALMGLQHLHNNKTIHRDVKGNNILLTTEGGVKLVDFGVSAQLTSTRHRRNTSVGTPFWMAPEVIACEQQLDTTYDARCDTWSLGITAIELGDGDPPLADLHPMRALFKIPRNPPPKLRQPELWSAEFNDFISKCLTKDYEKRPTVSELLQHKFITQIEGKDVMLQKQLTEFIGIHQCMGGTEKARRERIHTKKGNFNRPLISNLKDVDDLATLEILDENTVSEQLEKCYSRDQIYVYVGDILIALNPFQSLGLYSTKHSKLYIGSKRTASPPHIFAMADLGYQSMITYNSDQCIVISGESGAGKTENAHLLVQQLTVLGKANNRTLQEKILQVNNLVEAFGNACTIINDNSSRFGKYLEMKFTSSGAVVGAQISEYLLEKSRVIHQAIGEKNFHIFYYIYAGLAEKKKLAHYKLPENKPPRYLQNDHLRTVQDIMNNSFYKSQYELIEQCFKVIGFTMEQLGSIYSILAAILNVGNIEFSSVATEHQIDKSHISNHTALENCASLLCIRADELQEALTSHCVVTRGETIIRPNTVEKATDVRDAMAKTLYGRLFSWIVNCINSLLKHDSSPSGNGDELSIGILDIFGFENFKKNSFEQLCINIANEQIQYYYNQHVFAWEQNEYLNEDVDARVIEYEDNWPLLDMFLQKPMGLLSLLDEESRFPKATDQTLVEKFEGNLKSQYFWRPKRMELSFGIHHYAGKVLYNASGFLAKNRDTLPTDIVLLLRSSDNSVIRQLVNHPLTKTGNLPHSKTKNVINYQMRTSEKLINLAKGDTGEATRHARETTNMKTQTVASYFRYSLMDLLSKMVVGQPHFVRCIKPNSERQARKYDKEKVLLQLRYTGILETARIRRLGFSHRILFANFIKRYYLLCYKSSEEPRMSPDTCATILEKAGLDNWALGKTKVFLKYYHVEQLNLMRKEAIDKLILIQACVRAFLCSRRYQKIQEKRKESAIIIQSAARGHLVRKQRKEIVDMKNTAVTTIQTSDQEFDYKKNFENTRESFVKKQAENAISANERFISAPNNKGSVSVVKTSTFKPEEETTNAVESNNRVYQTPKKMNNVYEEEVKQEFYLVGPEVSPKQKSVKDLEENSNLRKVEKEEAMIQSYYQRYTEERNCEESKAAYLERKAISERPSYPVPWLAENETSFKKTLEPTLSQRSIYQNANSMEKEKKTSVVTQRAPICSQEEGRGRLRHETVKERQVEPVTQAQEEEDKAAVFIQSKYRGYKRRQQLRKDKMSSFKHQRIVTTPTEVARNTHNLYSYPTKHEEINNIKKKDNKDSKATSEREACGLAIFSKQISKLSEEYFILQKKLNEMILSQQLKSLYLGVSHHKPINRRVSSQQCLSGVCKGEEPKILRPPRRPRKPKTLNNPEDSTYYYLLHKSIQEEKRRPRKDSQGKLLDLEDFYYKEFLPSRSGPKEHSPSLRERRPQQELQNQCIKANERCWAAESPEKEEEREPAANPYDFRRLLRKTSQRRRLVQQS

Structures are written as SMILES.

Chain of Interferon-induced, double-stranded RNA-activated protein kinase (Homo sapiens) (P19525 whole entry): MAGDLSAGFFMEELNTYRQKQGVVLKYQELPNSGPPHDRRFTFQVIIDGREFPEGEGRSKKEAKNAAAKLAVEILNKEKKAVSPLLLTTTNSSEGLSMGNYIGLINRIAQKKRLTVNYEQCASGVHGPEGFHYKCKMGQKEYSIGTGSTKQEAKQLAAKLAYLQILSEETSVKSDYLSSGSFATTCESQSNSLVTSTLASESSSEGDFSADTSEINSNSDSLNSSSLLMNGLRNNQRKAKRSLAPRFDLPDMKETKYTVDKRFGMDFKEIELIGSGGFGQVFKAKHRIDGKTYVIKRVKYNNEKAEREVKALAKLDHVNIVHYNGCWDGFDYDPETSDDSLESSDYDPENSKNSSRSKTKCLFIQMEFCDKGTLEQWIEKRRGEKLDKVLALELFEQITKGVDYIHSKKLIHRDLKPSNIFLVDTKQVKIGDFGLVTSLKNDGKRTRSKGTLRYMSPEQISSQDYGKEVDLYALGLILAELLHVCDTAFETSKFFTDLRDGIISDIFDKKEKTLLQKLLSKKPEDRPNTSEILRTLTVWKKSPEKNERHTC

As to `CN(C)C/C=C/C(=O)Nc1ccc(C(=O)N2CCCC(Nc3ncc(Cl)c(-c4c[nH]c5ccccc45)n3)C2)cc1` (stereo unspecified), the % of control in [1] was 100%; in assay [2] it was 92%.
Take `Cc1cc(C)cc([C@@H]2c3cc(C)ccc3NC(=O)CN2C(=O)c2ccc(Br)s2)c1`: the % of inhibition in [3] is -4%.
Turning to `CNC(=O)Nc1ccc(-c2nc(N3CC4CCC(C3)O4)c3cnn(C4CCC5(CC4)OCCO5)c3n2)cc1`, the % of control in assay [4] was 100%.
For `O=C(NOC[C@H](O)CO)c1ccc(F)c(F)c1Nc1ccc(I)cc1F`, the % of control in [5] was 78%; in [6], 91%.
Take `COc1cc(N(C)c2ccnc3ccc(C(F)(F)F)cc23)cc(OC)c1OC`: the % binding came out at 100% in assay [7] and 96% in assay [8].
Turning to `CC[C@@H]1[C@H](F)C(=O)N[C@@H]1COc1nccc2cc(C(N)=O)c(OC)cc12` [ZIMLOVISERTIB], the % of inhibition in assay [9] was -6.5%.
In assay [10], `CCC(=O)N1CCN(c2ccc(-n3c(=O)ccc4cnc5ccc(-c6cnc7ccccc7c6)cc5c43)cc2C(F)(F)F)CC1` came in with a % of control of 100%.
The molecule `COCC(=O)NC/C=C/c1ccc2ncnc(Nc3ccc(Oc4ccc(C)nc4)c(C)c3)c2c1` [CP-724714] showed a % of control in assay [11] of 75%.

The values are drawn from ChEMBL document CHEMBL5465560, “Selectivity Literature for EUbOPEN Chemogenomic Library” (2024).
